The record followed here is patent US8481752B2, “Fluorescent imaging with substituted cyanine dyes” (Li-Cor, Inc., priority 2009, dated 2013).

The nature of data set [1]: Water solubility of the dye. The data set is classed as physicochemical.
The nature of data set [2]: Photostability on nitrocellulose under repeated Odyssey scans. It is filed as physicochemical. The note with it: for relative fluorescence with additional scans: as GAR conjugates on nitrocellulose, normalized to first scan, 100 scans. The procedure: The photostability of compound 8 was compared to that of Alexa Fluor 680 and IRDye 700DX. IRDye 700DX is one of the most photostable 700 nm fluorescent dyes known. Test samples were prepared by spotting equimolar amounts of dye-labeled conjugates (i.e., goat anti-rabbit (GAR) secondary antibodies labeled with the appropriate dye) onto nitrocellulose membrane. The membrane was then scanned repeatedly on an Odyssey Infrared Imager, so that the prolonged exposure of the dyes to the laser source induced some photodegradation. The signal intensity for each dye was normalized to the signal in the first scan for that dye (FIG. 9A-B).

As for `CC1(C)C(/C=C/C(=C/C=C2/N(CCCS(=O)(=O)O)c3ccc4c(S(=O)(=O)[O-])cc(S(=O)(=O)O)cc4c3C2(C)C)c2cccc(CCCCC(=O)O)c2)=[N+](CCCS(=O)(=O)O)c2ccc3c(S(=O)(=O)O)cc(S(=O)(=O)O)cc3c21` [Compound 8, Sodium 2-((1E,3Z,5E)-3-(3-(4-Carboxybutyl)phenyl)-5-(1,1-dimethyl-6,8-disulfonato-3-(3-sulfonatopropyl)-1H-benzo[e]indol-2(3H)-ylidene)penta-1,3-dienyl)-1,1-dimethyl-3-(3-sulfonatopropyl)-1H-benzo[e]indolium-6,8-disulfonate], in data set [1], the water solubility entry was “highly water-soluble”. In addition, the resistance to photodegradation result in data set [2] (as GAR conjugate) is “good resistance to photodegradation”. Moreover, the “relative fluorescence with additional scans” value in data set [2] is given as “decreased slightly”.
As to `C[Si](C)(CCC[N+](CCCS(=O)(=O)[O-])(CCCS(=O)(=O)[O-])CCCS(=O)(=O)[O-])O[Si]1(O[Si](C)(C)CCC[N+](CCCS(=O)(=O)[O-])(CCCS(=O)(=O)[O-])CCCS(=O)(=O)[O-])n2c3c4ccccc4c2N=C2N=C(N=c4c5ccccc5c(n41)=NC1=NC(=N3)c3ccccc31)c1cccc(OCCCOC(=O)NCCCCCC(=O)ON3C(=O)CCC3=O)c12.[Na+].[Na+].[Na+].[Na+]` (stereo not shown) [IRDye 700DX], the “relative fluorescence with additional scans” value in data set [2] is on record as “essentially unchanged”.
